# Test results as given in US12678446B2 (PFIZER INC., priority 2020, dated 2026).
# pEC50: −log10 of the molar value.
# Tests used:
# cell toxicity CC50 = format: cell-based; conditions: human; Hep-G2 cells; mean of at least two experiments; read-out: Cell Cytotoxicity CC50
# [1] = tested on: RSV (RSV A2 ECACC, 0709161v); experiment: RSV plaque reduction assay; format: cell-based, respiratory syncytial virus; conditions: human respiratory syncytial virus, HepG2, read-out: RSV A2 Plaque EC50, RSV A2 in Hep-G2 cells; mean of at least two experiments unless noted (n = 1)
# Procedure, shortened: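 Eight-point compound dilutions were premixed with RSV A2 (100 PFU/well) and applied to confluent Hep-G2 cells for 2 h, followed by a 2-day incubation at 37° C. under compound-containing 0.8% CMC overlay. EC50 comes from immunostained plaque counts relative to untreated virus wells, averaged over ≥2 runs.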
SMILES,CC50 (cell toxicity CC50) [nM],pEC50 [1]
"C[S+]([O-])c1ccc(-c2nn3c(c2C(=O)N[C@H]2N=C(c4ccccc4)c4cccc(F)c4NC2=O)OCCC3)c(F)c1 (stereo partly drawn) [Example 194, 2-(2-Fluoro-4-methylsulfinylphenyl)-N-[(3S)-9-fluoro-2-oxo-5-phenyl-1,3-dihydro-1,4-benzodiazepin-3-yl]-6,7-dihydro-5H-pyrazolo[5,1-b][1,3]oxazine-3-carboxamide]",> 25000,7.37
"CN1CCN(CC2COc3c(C(=O)N[C@H]4N=C(c5ccccc5)c5cccc(F)c5NC4=O)c(-c4ccccc4F)nn3C2)CC1 (stereo partly drawn) [Example 172, N-[(3S)-9-fluoro-2-oxo-5-phenyl-1,3-dihydro-1,4-benzodiazepin-3-yl]-2-(2-fluorophenyl)-6-[(4-methylpiperazin-1-yl)methyl]-6,7-dihydro-5H-pyrazolo[5,1-b][1,3]oxazine-3-carboxamide]",> 19900,6.63
"CCc1ccc(-c2nn3c(c2C(=O)N[C@H]2N=C(c4ccccc4)c4cccc(F)c4NC2=O)O[C@H](C)CC3)c(F)c1 [Example 75, (5R)-2-(4-Ethyl-2-fluorophenyl)-5-methyl-N-[(3S)-9-fluoro-2-oxo-5-phenyl-1,3-dihydro-1,4-benzodiazepin-3-yl]-6,7-dihydro-5H-pyrazolo[5,1-b][1,3]oxazine-3-carboxamide]",> 25000,6.80
"CCc1ncc(-c2nn3c(c2C(=O)N[C@H]2N=C(c4ccccc4)c4cccc(F)c4NC2=O)O[C@H](C)CC3)cn1 [Example 60, (5R)-2-(2-Ethylpyrimidin-5-yl)-N-[(3S)-9-fluoro-2-oxo-5-phenyl-1,3-dihydro-1,4-benzodiazepin-3-yl]-5-methyl-6,7-dihydro-5H-pyrazolo[5,1-b][1,3]oxazine-3-carboxamide]",> 25000,6.78
"O=C(N[C@H]1N=C(c2ccccc2)c2cccc(F)c2NC1=O)c1c(-c2ccc(F)cc2F)nn2c1OCCC2 [Example 2, 2-(2,4-Difluorophenyl)-N-[(3S)-9-fluoro-2-oxo-5-phenyl-1,3-dihydro-1,4-benzodiazepin-3-yl]-6,7-dihydro-5H-pyrazolo[5,1-b][1,3]oxazine-3-carobxamide]",> 25000,7.66
"C[C@@H]1CCn2nc(-c3ccc4c(cnn4C)c3)c(C(=O)N[C@H]3N=C(c4ccccc4)c4cccc(F)c4NC3=O)c2O1 [Example 83, (5R)-5-Methyl-2-(1-methylindazol-5-yl)-N-[(3S)-9-fluoro-2-oxo-5-phenyl-1,3-dihydro-1,4-benzodiazepin-3-yl]-6,7-dihydro-5H-pyrazolo[5,1-b][1,3]oxazine-3-carboxamide]",> 25000,6.94
"CCc1ccc(-c2nn3c(c2C(=O)N[C@H]2N=C(c4ccccc4)c4cccc(F)c4NC2=O)O[C@H](C)CC3)cn1 [Example 74, (5R)-2-(6-Ethylpyridin-3-yl)-5-methyl-N-[(3S)-9-fluoro-2-oxo-5-phenyl-1,3-dihydro-1,4-benzodiazepin-3-yl]-6,7-dihydro-5H-pyrazolo[5,1-b][1,3]oxazine-3-carboxamide]",> 25000,7.41
"C[C@@H]1CCn2nc(-c3cncc(Cl)c3)c(C(=O)N[C@H]3N=C(c4ccccc4)c4cccc(F)c4NC3=O)c2O1 [Example 47, (5R)-2-(5-Chloropyridin-3-yl)-5-methyl-N-[(3S)-9-fluoro-2-oxo-5-phenyl-1,3-dihydro-1,4-benzodiazepin-3-yl]-6,7-dihydro-5H-pyrazolo[5,1-b][1,3]oxazine-3-carboxamide]",> 25000,7.08
"C[C@@H]1CCn2nc(-c3ccc(N4CCOCC4)nc3)c(C(=O)N[C@H]3N=C(c4ccccc4)c4cccc(F)c4NC3=O)c2O1 [Example 56, (5R)-N-[(3S)-9-fluoro-2-oxo-5-phenyl-1,3-dihydro-1,4-benzodiazepin-3-yl]-5-methyl-2-(6-morpholino-3-pyridyl)-6,7-dihydro-5H-pyrazolo[5,1-b][1,3]oxazine-3-carboxamide]",> 25000,6.91
"COCCn1cc(-c2nn3c(c2C(=O)N[C@H]2N=C(c4ccccc4)c4cccc(F)c4NC2=O)O[C@H](C)CC3)cn1 [Example 119, (5R)-N-[(3S)-9-fluoro-2-oxo-5-phenyl-1,3-dihydro-1,4-benzodiazepin-3-yl]-2-[1-(2-methoxyethyl)pyrazol-4-yl]-5-methyl-6,7-dihydro-5H-pyrazolo[5,1-b][1,3]oxazine-3-carboxamide]",> 25000,7.16
"O=C(N[C@H]1N=C(c2ccccc2)c2ccccc2NC1=O)c1c(-c2ccccc2)nn2c1OCC1(COC1)C2 [Example 28, N-[(3S)-2-oxo-5-phenyl-1,3-dihydro-1,4-benzodiazepin-3-yl]-2-phenylspiro[5,7-dihydropyrazolo[5,1-b][1,3]oxazine-6,3′-oxetane]-3-carboxamide]",> 25000,7.12
"CC(O)Cc1ccc(-c2nn3c(c2C(=O)N[C@H]2N=C(c4ccccc4)c4cccc(F)c4NC2=O)O[C@H](C)CC3)cn1 (stereo partly drawn) [Example 78, (5R)-2-[6-(2-Hydroxypropyl)pyridin-3-yl]-5-methyl-N-[(3S)-9-fluoro-2-oxo-5-phenyl-1,3-dihydro-1,4-benzodiazepin-3-yl]-6,7-dihydro-5H-pyrazolo[5,1-b][1,3]oxazine-3-carboxamide]",> 25000,6.66
"O=C(N[C@H]1N=C(c2ccccc2)c2cccc(F)c2NC1=O)c1c(-c2cnn(CC(F)(F)F)c2)nn2c1OCCC2 [Example 150, N-[(3S)-9-fluoro-2-oxo-5-phenyl-1,3-dihydro-1,4-benzodiazepin-3-yl]-2-[1-(2,2,2-trifluoroethyl)pyrazol-4-yl]-6,7-dihydro-5H-pyrazolo[5,1-b][1,3]oxazine-3-carboxamide]",> 25000,7.21
"O=C(N[C@H]1N=C(c2ccccc2)c2cccc(F)c2NC1=O)c1c(-c2ccccc2F)nn2c1OC(CN1CCOCC1)CC2 (stereo partly drawn) [Example 167, N-[(3S)-9-fluoro-2-oxo-5-phenyl-1,3-dihydro-1,4-benzodiazepin-3-yl]-2-(2-fluorophenyl)-5-(morpholin-4-ylmethyl)-6,7-dihydro-5H-pyrazolo[5,1-b][1,3]oxazine-3-carboxamide]",> 25000,7.04
"CC(O)Cc1ccc(-c2nn3c(c2C(=O)N[C@H]2N=C(c4ccccc4)c4ccccc4NC2=O)O[C@H](C)CC3)cn1 (stereo partly drawn) [Example 50, (5R)-2-[6-(2-Hydroxypropyl)pyridin-3-yl]-5-methyl-N-[(3S)-2-oxo-5-phenyl-1,3-dihydro-1,4-benzodiazepin-3-yl]-6,7-dihydro-5H-pyrazolo[5,1-b][1,3]oxazine-3-carboxamide]",> 25000,6.37
"C[C@@H]1CCn2nc(-c3ccsc3)c(C(=O)N[C@H]3N=C(c4ccccc4)c4ccccc4NC3=O)c2O1 [Example 64, (5R)-5-Methyl-N-[(3S)-2-oxo-5-phenyl-1,3-dihydro-1,4-benzodiazepin-3-yl]-2-(3-thienyl)-6,7-dihydro-5H-pyrazolo[5,1-b][1,3]oxazine-3-carboxamide]",> 25000,6.88
"C[C@@H]1CCn2nc(-c3ccc(S(N)(=O)=O)cc3F)c(C(=O)N[C@H]3N=C(c4ccccc4)c4cccc(F)c4NC3=O)c2O1 [Example 199, (5R)-N-[(3S)-9-Fluoro-2-oxo-5-phenyl-1,3-dihydro-1,4-benzodiazepin-3-yl]-2-(2-fluoro-4-sulfamoylphenyl)-5-methyl-6,7-dihydro-5H-pyrazolo[5,1-b][1,3]oxazine-3-carboxamide]",> 25000,7.19
"CN(C)CC1CCn2nc(-c3ccccc3F)c(C(=O)N[C@H]3N=C(c4ccccc4)c4cccc(F)c4NC3=O)c2O1 (stereo partly drawn) [Example 166, 5-[(Dimethylamino)methyl]-N-[(3S)-9-fluoro-2-oxo-5-phenyl-1,3-dihydro-1,4-benzodiazepin-3-yl]-2-(2-fluorophenyl)-6,7-dihydro-5H-pyrazolo[5,1-b][1,3]oxazine-3-carboxamide]",> 25000,6.70
"CCC1COc2c(C(=O)N[C@H]3N=C(c4ccccc4)c4cccc(F)c4NC3=O)c(-c3ccccc3F)nn2C1 (stereo partly drawn) [Example 11, 6-Ethyl-N-[(3S)-9-fluoro-2-oxo-5-phenyl-2,3-dihydro-1H-1,4-benzodiazepin-3-yl]-2-(2-fluorophenyl)-5H,6H,7H-pyrazolo[3,2-b][1,3]oxazine-3-carboxamide]",> 25000,7.48
"C[C@@H]1CCn2nc(Nc3ccc(F)cc3)c(C(=O)N[C@H]3N=C(c4ccccc4)c4cccc(F)c4NC3=O)c2O1 [Example 97, (5R)-2-(4-Fluoroanilino)-N-[(3S)-9-fluoro-2-oxo-5-phenyl-1,3-dihydro-1,4-benzodiazepin-3-yl]-5-methyl-6,7-dihydro-5H-pyrazolo[5,1-b][1,3]oxazine-3-carboxamide]",> 25000,6.36
"COC1CN(c2ccc(-c3nn4c(c3C(=O)N[C@H]3N=C(c5ccccc5)c5cccc(F)c5NC3=O)O[C@H](C)CC4)cn2)C1 [Example 144, (5R)-N-[(3S)-9-fluoro-2-oxo-5-phenyl-1,3-dihydro-1,4-benzodiazepin-3-yl]-2-[6-(3-methoxyazetidin-1-yl)pyridin-3-yl]-5-methyl-6,7-dihydro-5H-pyrazolo[5,1-b][1,3]oxazine-3-carboxamide]",> 25000,7.00
CCc1ccc(-c2nn3c(c2C(=O)N[C@H]2N=C(c4ccccc4)c4ccccc4NC2=O)O[C@H](C)CC3)c(F)c1 [Example 54],> 25000,7.82
"C[C@@H]1CCn2nc(-c3cnn(CCO)c3)c(C(=O)N[C@H]3N=C(c4ccccc4)c4cccc(F)c4NC3=O)c2O1 [Example 117, (5R)-N-[(3S)-9-fluoro-2-oxo-5-phenyl-1,3-dihydro-1,4-benzodiazepin-3-yl]-2-[1-(2-hydroxyethyl)pyrazol-4-yl]-5-methyl-6,7-dihydro-5H-pyrazolo[5,1-b][1,3]oxazine-3-carboxamide]",> 25000,6.36
